Source: patent US7928238B2, “1,2,3,4-tetrahydro-quinoline derivatives as CETP inhibitors” (Janssen Pharmaceutica NV, priority 2006, dated 2011)
pIC50: −log10 of the molar value. Several values for one entry are separate records, joined by “and”; a condition that tells them apart may be missing. Equal values may be shown once. Read-outs that look alike come from different tables or passages of the source.

Target: T1, CETP (Homo sapiens, UniProt P11597)
T1 construct: from tissue; host or cells: human plasma from normal volunteers
T1 sequence (P11597 18-493): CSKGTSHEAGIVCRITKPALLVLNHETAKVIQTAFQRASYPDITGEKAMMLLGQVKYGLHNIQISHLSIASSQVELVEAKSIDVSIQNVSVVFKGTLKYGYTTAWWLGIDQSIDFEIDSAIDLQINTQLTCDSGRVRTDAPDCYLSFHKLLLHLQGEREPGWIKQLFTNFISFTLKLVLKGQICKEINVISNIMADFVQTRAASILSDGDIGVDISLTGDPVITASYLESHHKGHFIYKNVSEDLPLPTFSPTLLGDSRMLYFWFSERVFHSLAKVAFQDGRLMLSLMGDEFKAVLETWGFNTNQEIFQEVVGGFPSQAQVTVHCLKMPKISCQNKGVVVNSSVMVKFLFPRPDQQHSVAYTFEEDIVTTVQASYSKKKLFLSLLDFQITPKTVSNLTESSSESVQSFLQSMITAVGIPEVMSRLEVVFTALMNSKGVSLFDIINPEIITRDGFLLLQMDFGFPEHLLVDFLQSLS
Assay: CETP in vitro assay (Amersham kit TRKQ7005; modified protocol in human plasma, [3H]CE-HDL transfer)
Format: biochemical
Settings: for pIC50: from plots of % control versus compound concentration
Description: The CETP inhibitory activity of the compounds was determined using a commercially available kit from Amersham Biosciences (Catalog #TRKQ7005).
Briefly, 80 μl of human plasma (obtained from normal volunteers), approximately 25 μg/ml (20 μl) of [^3H]CE-HDL (Amersham Biosciences from kit TRKQ7005) and 1 μl of compound dissolved in DMSO was incubated for at least 4 hrs at 37° C. and non-specific transfer was determined by incubating a corresponding plate at 4° C. (blank). After the incubation period, 10 μl of a solution of 1% Dextralip 50/0.5M MgCl2, pH 7.4 was added, vortexed and incubated at room temperature for 10 min. The plate was then centrifuged for 30 min at 10° C. at 300 rpm in a Sorvall RT6000B centrifuge. Fifty microliters of the supernatant was transferred to a Picoplate (Packard) containing 100 μl of Microscint 40 (Perkin Elmer) and mixed for 30 min using a plate mixer. The radioactivity was counted using a TopCount (Perkin Elmer) and the % control was determined in the samples using the following formula: % transfer relative to vehicle controls (% control)=[cpm blank−cpm test]/cpm blank/cpm control]×100. IC50s were calculated from plots of the % control versus compound concentration.

[1] = 1 μM compound, read-out: % Inhibition @ 1 μM

| SMILES | % Inhibition @ 1 μM (1 μM compound) | pIC50 | inhibition at 1 µM [1] [%] | inhibition at 1 µM (read-out: % Inhibition @ 1 μM, 1 μM compound) [%] |
| --- | --- | --- | --- | --- |
| OC(CN1c2cccc(Oc3cccc(Cl)c3Cl)c2CCC1c1cccc(OC(F)(F)C(F)F)c1)C(F)(F)F (stereo not drawn) [Compound 87, 3-{5-(2,3-Dichloro-phenoxy)-2-[3-(1,1,2,2-tetrafluoro-ethoxy)-phenyl]-3,4-dihydro-2H-quinolin-1-yl}-1,1,1-trifluoro-propan-2-ol] | 86% | 6.40 | – | – |
| OC(CN1c2cccc(-c3cccc(OC(F)(F)F)c3)c2CCC1c1cccc(C(F)(F)F)c1)C(F)(F)F (stereo not drawn) [Compound 17, 1,1,1-Trifluoro-3-[5-(3-trifluoromethoxy-phenyl)-2-(3-trifluoromethyl-phenyl)-3,4-dihydro-2H-quinolin-1-yl]-propan-2-ol] | 43% and 55% | 7.08 and 6.69 | 54 | – |
| OC(CCl)CN1c2cccc(-c3cccc(OC(F)(F)F)c3)c2CCC1c1cccc(OC(F)(F)F)c1 (stereo not drawn) [Compound 47, 1-[2,5-Bis-(3-trifluoromethoxy-phenyl)-3,4-dihydro-2H-quinolin-1-yl]-3-chloro-propan-2-ol] | 68% and 44% | 6.13 | – | – |
| CCC1CCc2c(-c3cccc(OC(F)(F)F)c3)cccc2N1CC(O)C(F)(F)F (stereo not drawn) [Compound 36, 3-[2-Ethyl-5-(3-trifluoromethoxy-phenyl)-3,4-dihydro-2H-quinolin-1-yl]-1,1,1-trifluoro-propan-2-ol] | 11% and 13% | – | – | – |
| OC(CN1c2cccc(-c3cccc(Cl)c3)c2CCC1c1cccc(OC(F)(F)C(F)F)c1)C(F)(F)F (stereo not drawn) [Compound 15, 3-{5-(3-Chloro-phenyl)-2-[3-(1,1,2,2-tetrafluoro-ethoxy)-phenyl]-3,4-dihydro-2H-quinolin-1-yl}-1,1,1-trifluoro-propan-2-ol] | 66% | 7.17 and 7.23 | – | 68 |
| N#Cc1cccc(C2CCc3c(-c4cccc(OC(F)(F)F)c4)cccc3N2CC(O)C(F)(F)F)c1 (stereo not drawn) [Compound 28, 3-[1-(3,3,3-Trifluoro-2-hydroxy-propyl)-5-(3-trifluoromethoxy-phenyl)-1,2,3,4-tetrahydro-quinolin-2-yl]-benzonitrile] | 25% | – | – | – |
| OC(CN1c2cccc(-c3cccc(OC(F)(F)F)c3)c2CCC1c1cccs1)C(F)(F)F (stereo not drawn) [Compound 34, 1,1,1-Trifluoro-3-[2-thiophen-2-yl-5-(3-trifluoromethoxy-phenyl)-3,4-dihydro-2H-quinolin-1-yl]-propan-2-ol] | 12% | – | – | – |
| CCC1CCc2c(-c3cccc(OC(F)(F)F)c3)cccc2N1CC(O)C(F)(F)F (stereo not drawn) [Compound 35, 3-[2-Ethyl-5-(3-trifluoromethoxy-phenyl)-3,4-dihydro-2H-quinolin-1-yl]-1,1,1-trifluoro-propan-2-ol] | 43% and 45% | – | – | – |
| C[C@@H](O)CN1c2cccc(-c3cccc(Cl)c3)c2CC[C@@H]1c1cccc(OC(F)(F)F)c1 [Compound 40] | 32% | 6.82 | 37 | – |
| C[C@@H](O)CN1c2cccc(-c3cccc(Cl)c3)c2CC[C@H]1c1cccc(OC(F)(F)F)c1 [Compound 41] | – | – | 3 | – |
| C[C@@H](O)CN1c2cccc(-c3cccc(OC(F)(F)F)c3)c2CC[C@H]1c1cccc(OC(F)(F)F)c1 [Compound 54] | – | – | 13 | – |
| OC(CN1c2cccc(-c3cccc(OC(F)(F)F)c3)c2CCC1C1CCCCC1)C(F)(F)F (stereo not drawn) [Compound 37, 3-[2-Cyclohexyl-5-(3-trifluoromethoxy-phenyl)-3,4-dihydro-2H-quinolin-1-yl]-1,1,1-trifluoro-propan-2-ol] | 11% | – | – | – |
| OC(CN1c2cccc(-c3cccc(OC(F)(F)F)c3)c2CCC1c1cccs1)C(F)(F)F (stereo not drawn) [Compound 33, 1,1,1-Trifluoro-3-[2-thiophen-2-yl-5-(3-trifluoromethoxy-phenyl)-3,4-dihydro-2H-quinolin-1-yl]-propan-2-ol] | 28% | – | – | – |
| O=C(CN1CCOCC1)N1c2cccc(-c3cccc(OC(F)(F)F)c3)c2CCC1c1cccc(OC(F)(F)F)c1 (stereo not drawn) [Compound 88, 1-[2,5-Bis-(3-trifluoromethoxy-phenyl)-3,4-dihydro-2H-quinolin-1-yl]-2-morpholin-4-yl-ethanone] | – | – | 0 | – |

Further lines, with some results ahead:

| % Inhibition @ 1 μM (1 μM compound) | pIC50 | inhibition at 1 µM [1] [%] | SMILES | inhibition at 1 µM (read-out: % Inhibition @ 1 μM, 1 μM compound) [%] |
| --- | --- | --- | --- | --- |
| 98% | 6.85 and 6.80 | 100 | COc1cccc(-c2cccc3c2CC[C@H](c2cccc(OC(F)(F)C(F)F)c2)N3C[C@H](O)C(F)(F)F)c1 [Compound 83] | – |
| 42% | – | – | Cc1cc(-c2cccc3c2CCC(c2cccc(OC(F)(F)C(F)F)c2)N3CC(O)C(F)(F)F)ccc1Cl (stereo not drawn) [Compound 6, 3-{5-(4-Chloro-3-methyl-phenyl)-2-[3-(1,1,2,2-tetrafluoro-ethoxy)-phenyl]-3,4-dihydro-2H-quinolin-1-yl}-1,1,1-trifluoro-propan-2-ol] | – |
| – | – | 0 | C[C@H](O)CN1c2cccc(-c3cccc(OC(F)(F)F)c3)c2CC[C@@H]1c1cccc(OC(F)(F)C(F)F)c1 [Compound 61] | – |
| 49% and 61% | 6.46 | – | CC(C)Oc1cccc(-c2cccc3c2CCC(c2cccc(OC(F)(F)C(F)F)c2)N3CC(O)C(F)(F)F)c1 (stereo not drawn) [Compound 68, 1,1,1-Trifluoro-3-{5-(3-isopropoxy-phenyl)-2-[3-(1,1,2,2-tetrafluoro-ethoxy)-phenyl]-3,4-dihydro-2H-quinolin-1-yl}-propan-2-ol] | – |
| – | < 5.52 | 62 | O[C@H](CN1c2cccc(-c3cccc(OC(F)(F)F)c3)c2CC[C@@H]1c1cccc(OC(F)(F)C(F)F)c1)C(F)(F)F [Compound 79, (2R, αR)-3,4-Dihydro-2-[3-(1,1,2,2-tetrafluoroethoxy)phenyl]-5-[3-(trifluoromethoxy)phenyl]-α-(trifluoromethyl)-1(2H)-quinolineethanol] | – |
| 98% and 87% | 7.02 | – | OC(CN1c2cccc(-c3cccc(C(F)(F)F)c3)c2CCC1c1cccc(OC(F)(F)C(F)F)c1)C(F)(F)F (stereo not drawn) [Compound 13] | – |
| – | – | 30 | C[C@H](O)CN1c2cccc(-c3cccc(OC(F)(F)F)c3)c2CC[C@H]1c1cccc(OC(F)(F)C(F)F)c1 [Compound 62] | – |
| 23% | – | – | Oc1cccc(-c2cccc3c2CCC(c2cccc(OC(F)(F)C(F)F)c2)N3CC(O)C(F)(F)F)c1 (stereo not drawn) [Compound 43, 3-[2-[3-(1,1,2,2-Tetrafluoro-ethoxy)-phenyl]-1-(3,3,3-trifluoro-2-hydroxy-propyl)-1,2,3,4-tetrahydro-quinolin-5-yl]-phenol] | – |
| 37% | – | – | OC(CN1c2cccc(-c3cccc(C(F)(F)F)c3)c2CCC1c1cccc(OC(F)(F)C(F)F)c1)C(F)(F)F (stereo not drawn) [Compound 14] | – |
| – | – | 39 | O=Cc1cccc(-c2cccc3c2CCC(c2cccc(OC(F)(F)C(F)F)c2)N3CC(O)C(F)(F)F)c1 (stereo not drawn) [Compound 63, 3-[2-[3-(1,1,2,2-Tetrafluoro-ethoxy)-phenyl]-1-(3,3,3-trifluoro-2-hydroxy-propyl)-1,2,3,4-tetrahydro-quinolin-5-yl]-benzaldehyde] | – |
| 97% and 106% | 6.64 | – | Oc1cccc(-c2cccc3c2CCC(c2cccc(OC(F)(F)C(F)F)c2)N3CC(O)C(F)(F)F)c1 (stereo not drawn) [Compound 42, 3-[2-[3-(1,1,2,2-Tetrafluoro-ethoxy)-phenyl]-1-(3,3,3-trifluoro-2-hydroxy-propyl)-1,2,3,4-tetrahydro-quinolin-5-yl]-phenol] | – |
